One substance from patent US9770481B2, “Inhibitors of NOX1” (UNIVERSITY OF PITTSBURGH—OF THE COMMONWEALTH SYSTEM OF …, priority 2011, dated 2017) can be followed below.

Holding throughout (format): cell-based
The target in one experiment is T1, Nox4 (Homo sapiens, UniProt Q9NPH5).
T1 construct: expressed in transfected cells; host or cells: COS22 / COS cells, transient transfection
T1 sequence (Q9NPH5 1-578): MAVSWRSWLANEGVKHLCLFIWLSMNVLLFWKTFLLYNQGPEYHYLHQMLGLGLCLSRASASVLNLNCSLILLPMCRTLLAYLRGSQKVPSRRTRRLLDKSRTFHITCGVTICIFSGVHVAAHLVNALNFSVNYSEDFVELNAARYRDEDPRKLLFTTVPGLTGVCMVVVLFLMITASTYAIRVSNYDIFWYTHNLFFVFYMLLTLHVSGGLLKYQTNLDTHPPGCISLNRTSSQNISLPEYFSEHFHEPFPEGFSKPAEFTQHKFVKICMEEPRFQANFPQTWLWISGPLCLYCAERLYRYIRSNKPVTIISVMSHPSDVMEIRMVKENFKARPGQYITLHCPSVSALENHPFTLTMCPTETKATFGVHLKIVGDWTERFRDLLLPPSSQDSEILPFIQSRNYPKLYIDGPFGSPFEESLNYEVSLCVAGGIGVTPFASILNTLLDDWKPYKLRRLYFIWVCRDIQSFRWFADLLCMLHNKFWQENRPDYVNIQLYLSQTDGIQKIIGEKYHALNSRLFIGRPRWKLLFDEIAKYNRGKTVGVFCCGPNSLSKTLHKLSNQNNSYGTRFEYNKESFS
T1 sequence (P13498 1-195 partner): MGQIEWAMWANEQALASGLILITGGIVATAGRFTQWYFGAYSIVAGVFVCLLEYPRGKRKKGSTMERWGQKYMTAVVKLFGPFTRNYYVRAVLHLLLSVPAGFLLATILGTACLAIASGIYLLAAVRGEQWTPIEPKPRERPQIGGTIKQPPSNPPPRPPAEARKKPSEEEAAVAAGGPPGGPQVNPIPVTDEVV
The experiment can be described thus: H2O2 production by COS cells transfected with Nox4 oxidase (Amplex red). To be noted: 100 nM to 10,000 nM. How it is done:
To test whether the inhibitory effect of NoxA1ds is specific to Nox1, the effect of NoxA1ds was tested on cells expressing Nox2, Nox4, and Nox5 as well as on purified xanthine oxidase enzyme. To test the effect on Nox2, production of O2^− was measured by the reduction of cytochrome c by cell lysates from COS cells transiently transfected with the Nox2 oxidase, stimulated with LiDS, and the treated with increasing concentrations of NoxA1ds (from 0.1 nM to 10,000 nM). Similarly, production of H2O2 was measured by Amplex red fluorescence by COS cells transiently transfected with the Nox4 oxidase and treated with increasing concentrations of NoxA1ds (from 100 nM to 10,000 nM). Production of O2^− was also measured by the reduction of cytochrome c by cell lysates from HEK293 cells stably transfected with the Nox5 oxidase stimulated with Ca^2+, and treated with increasing concentrations of NoxA1ds (from 0.1 nM to 10,000 nM). Finally, production of O2^− was measured by Electron Paramagnetic Resonance from pure xanthine oxidase enzyme preparations, stimulated with hypoxanthine and treated with increasing concentrations of NoxA1ds (from 0.1 nM to 10,000 nM).

Experiment [1] deals with T2, interaction between Nox1 and NoxA1 (Homo sapiens, UniProt Q9Y5S8).
T2 construct: expressed in transfected cells; host or cells: COS22
T2 sequence (Q9Y5S8 1-564): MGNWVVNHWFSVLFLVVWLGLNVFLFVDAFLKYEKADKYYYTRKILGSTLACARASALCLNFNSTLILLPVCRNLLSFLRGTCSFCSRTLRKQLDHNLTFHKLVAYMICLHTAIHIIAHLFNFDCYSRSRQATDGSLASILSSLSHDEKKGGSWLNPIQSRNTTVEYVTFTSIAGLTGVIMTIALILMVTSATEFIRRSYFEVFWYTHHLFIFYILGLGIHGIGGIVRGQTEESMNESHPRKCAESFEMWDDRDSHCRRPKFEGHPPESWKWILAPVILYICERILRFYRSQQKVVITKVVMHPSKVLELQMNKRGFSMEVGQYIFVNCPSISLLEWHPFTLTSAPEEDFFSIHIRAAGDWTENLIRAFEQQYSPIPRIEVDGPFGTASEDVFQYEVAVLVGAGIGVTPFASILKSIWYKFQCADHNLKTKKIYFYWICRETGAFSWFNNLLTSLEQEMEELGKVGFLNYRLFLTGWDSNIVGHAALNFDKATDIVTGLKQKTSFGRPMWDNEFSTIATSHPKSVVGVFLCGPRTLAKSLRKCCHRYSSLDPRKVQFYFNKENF
T2 sequence (P13498 2-195 partner limits assumed): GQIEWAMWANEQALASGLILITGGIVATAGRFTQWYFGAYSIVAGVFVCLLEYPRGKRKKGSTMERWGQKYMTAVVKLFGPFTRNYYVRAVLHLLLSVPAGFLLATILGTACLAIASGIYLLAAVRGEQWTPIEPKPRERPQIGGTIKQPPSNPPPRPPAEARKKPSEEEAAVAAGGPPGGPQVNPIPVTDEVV
As to the kind of experiment: FRET between Nox1-YFP and NoxA1-CFP in transfected COS22 cells. Conditions: 10 μM, one hour prior to imaging. How it is done: FRET (fluorescence resonance energy transfer) studies were performed to study the effect of NoxA1ds on the interaction between Nox1 and NoxA1: In particular, FRET between Nox1-YFP and NoxA1-CFP transfected COS22 cells in the presence or absence of 10 μM NoxA1ds or SCRMB was evaluated. Relative fluorescence of CFP is green while YFP is red. Traces underneath the images indicate fluorescent intensities of CFP and YFP underneath the arrow overlaid on each cell.

Experiment [2] has as its system rat aortic smooth muscle cells. As to the kind of experiment: O2- production by rat aortic smooth muscle cells under static conditions or cyclic stretch. On the procedure: FIG. 8. NoxA1ds attenuates stretch-induced O2^− production: Effect of NoxA1ds on O2^− production by rat aortic smooth muscle cells subjected to static conditions or cyclic stretch (10%, 1 Hz, 24 hrs). NoxA1ds was added 4 hrs before measuring O2^− production.
Cyclic stretching of vascular cells occurs as a result of the pulsatile nature of blood flow but is increased in hypertensive states, and has been associated with generation of ROS and possibly cell proliferation. […] At the end of 24 hrs, cells were lysed and membrane fraction O2^− production was measured using cytochrome c.

For experiment [3], the system named is human pulmonary artery endothelial cells. The experiment can be described thus: Hypoxia-induced superoxide production by human pulmonary artery endothelial cells. How it is done:
Experiments were also performed to evaluate the effect of NoxA1ds on hypoxia-induced superoxide production by human pulmonary artery endothelial cells.

Entries after “also recorded” stand apart in the source; their conditions may differ.

On to “H-EPVDALGKAKV-NH2 [NoxA1ds, [NH3^+]-EPVDALGKAKV-[CONH2]]”, for which the “Inhibitory effect on Nox4 H2O2 production” value at Nox4 is “did not exhibit a significant inhibitory effect”. The “CFP fluorescence after photobleaching of Nox1-YFP (FRET)” value in experiment [1] was “did not result in a concomitant increase in CFP fluorescence”. Further, in experiment [2] (cyclic stretch 10%, 1 Hz, 24 hrs, peptide added at t=20 hrs (4 hrs before measuring)), the “Cyclic stretch-induced O2- production” value is on record as “completely abrogated; also recorded: inhibited”. Further, the “O2- production under static conditions” value in experiment [2] (static, 10 μM) is given as “negligible effect”. The “O2- production under hypoxia” value in experiment [3] (hypoxia 1.0% O2, 24 hrs) is reported as “returned to the amount observed under normoxia”. The “O2- production under normoxic conditions” value in experiment [3] (normoxia) is on record as “negligible effect”.
